# Laboratory results reported in PubChem BioAssay AID1963853 (Molecular Pharmacology Branch, DTP, NCI, 2024).
# Where “and” joins values, the source holds several entries; their conditions need not be identical. Equal entries are not always repeated.
# System: 266295-075-R-J1-PDC spheroid viability
# Experiment: Anticancer human tumor 266295-075-R-J1-PDC patient-derived head and neck squamous carcinoma cell line growth inhibition [POLQ]
# Settings: spheroids with HUVEC and MSC; for viability, T/C: stronger effect = lower value
# Method: Multicellular complex tumor spheroid response to Polymerase (POL) inhibitors (novobiocin, ART-558, RP6685) in combination with a variety of drugs and investigational agents in selected tumor cell lines
# The POL inhibitors (novobiocin, ART-558, and RP6685) were evaluated both individually and in combination with standard of care and investigational anticancer small molecules within a complex spheroid model of solid tumors. . Complex spheroids include a stromal component modeled by human endothelial cells (HUVEC) and fibroblasts modeled by human mesenchymal stem cells (MSCs). The concentration ranges selected for each drug and investigational agent were based upon clinically achievable concentrations if the clinical Cmax of the agent was known.
# Compounds. The drugs and investigational agents: novobiocin (NSC847541), ART-558 (NSC835418), RP-6685 (NSC848927), peposertib (NSC802822), ceralasertib (NSC780249), elimusertib (NSC800525), camonsertib (NSC841442), AZD-1390 (NSC803789), olaparib (NSC753686), talazoparib (NSC767125), rucaparib (NSC756644), sotorasib (NSC818433), MRTX-1133 (NSC836407), SN-38 (NSC673596), topotecan (NSC609699), epotoside (NSC141540), doxorubicin (NSC123127), gemcitabine (NSC613327), 5-fluorouracil (NSC19893), paclitaxel (NSC125973), vemurafenib (NSC761431), MSA-2 (NSC828583), SN-011 (NSC837082), adavosertib (NSC754352), prexasertib (NSC758257), carboplatin (NSC241240) and oxaliplatin (NSC266046), were obtained from the National Cancer Institute (NCI) Developmental Therapeutics Program Chemical Repository (21). The FDA-approved anticancer drug set is available from the Developmental Therapeutics Program at https://dtp.cancer.gov/organization/dscb/obtaining/. […] The stock solutions were prepared in dimethyl sulfoxide (DMSO, Sigma-Aldrich, St. Louis, MO, cat. D2650), except for the platinum compounds which were prepared in saline (Quality Biological, Gaithersburg, MD, cat. 114-055-101), at 800-fold the tested concentration and stored at -70 degrees C prior to their use. All drugs and investigational agents were tested over a range starting from a high concentration at or near the clinical Cmax and decreasing in half-log increments. If the clinical Cmax for an agent had not been determined, the highest concentration tested was 10 microM, except for SN-38, which was tested at a high concentration of 1 microM.
# Cell Culture. All cells were maintained in an incubator at 37 degrees C and 5% CO2 with 95% humidity. The PDC lines were cultured according to standard operating procedures established by the NCI PDMR (https://pdmr.cancer.gov). Table 3 of the manuscript, lists the cell lines along with the number of the three cell types plated to form the mct-spheroids and media for tumor cell growth. After thawing, all PDC lines, except 997537-175-T-J1-PDC and 415267-285-R-J2-PDC, were cultured in Matrigel-coated flasks prepared with a working solution of 1X Ham's F-12 nutrient mix, without supplementation (Thermo Fisher Scientific, cat. 11765054), 100 U/mL penicillin-streptomycin (Thermo Fisher Scientific, cat. 15140122), and 2.5% Matrigel (Corning Inc., Corning, NY, cat. 354248) for the first three passages. The two PDC lines 997537-175-T-J1-PDC and 415267-285-R-J2-PDC were cultured on uncoated flasks. The 857933-349-R-J2-PDC line was cultured in 6C/Colon 1B media containing advanced DMEM/F-12 (Thermo Fisher Scientific, cat. 12634028), 10 mM HEPES (Thermo Fisher Scientific, cat. 15630080), 1X GlutaMAX supplement (Thermo Fisher Scientific, cat. 35050061), 0.1 mg/mL primocin (InvivoGen, San Diego, CA, cat. ant-pm-2), 10% defined fetal bovine serum, heat inactivated (HyClone Laboratories Inc., Logan, UT, cat. SH30070.03HI), 50% L-WRN conditioned media (ATCC, cat. CRL-3276), 1.25 mM N-Acetyl-L-cysteine (Sigma-Aldrich, cat. A9165), 10 mM nicotinamide (Sigma-Aldrich, cat. N0636), 1X B-27 supplement (Thermo Fisher Scientific, cat. 17504044), 1X N-2 supplement (Thermo Fisher Scientific, cat. […]
# [1] = curve of first compound, second compound 0.0316 µM
# [2] = curve of first compound, second compound 0.1 µM
# [3] = curve of first compound, second compound 0.316 µM
# [4] = curve of first compound, second compound 1 µM
# [5] = curve of first compound, second compound 3.16 µM
# [6] = curve of first compound, second compound 10 µM
# [7] = second compound 0.0316 µM, first compound 0.0316 µM
# [8] = second compound 0.0316 µM, first compound 0.1 µM
# [9] = second compound 0.0316 µM, first compound 0.316 µM
# [10] = second compound 0.0316 µM, first compound 1 µM
# [11] = second compound 0.1 µM, first compound 0.0316 µM
# [12] = second compound 0.1 µM, first compound 0.1 µM
# [13] = second compound 0.1 µM, first compound 0.316 µM
# [14] = second compound 0.1 µM, first compound 1 µM
# [15] = second compound 0.316 µM, first compound 0.0316 µM
# [16] = second compound 0.316 µM, first compound 0.1 µM
# [17] = second compound 0.316 µM, first compound 0.316 µM
# [18] = second compound 0.316 µM, first compound 1 µM
# [19] = second compound 1 µM, first compound 0.0316 µM
# [20] = second compound 1 µM, first compound 0.1 µM
# [21] = second compound 1 µM, first compound 0.316 µM
# [22] = second compound 1 µM, first compound 1 µM
# [23] = second compound 3.16 µM, first compound 0.0316 µM
# [24] = second compound 3.16 µM, first compound 0.1 µM
# [25] = second compound 3.16 µM, first compound 0.316 µM
# [26] = second compound 3.16 µM, first compound 1 µM
# [27] = second compound 10 µM, first compound 0.0316 µM
# [28] = second compound 10 µM, first compound 0.1 µM
# [29] = second compound 10 µM, first compound 0.316 µM
# [30] = second compound 10 µM, first compound 1 µM
# [31] = second compound 0.0316 µM, first compound 3.16 µM
# [32] = second compound 0.0316 µM, first compound 10 µM
# [33] = second compound 0.1 µM, first compound 3.16 µM
# [34] = second compound 0.1 µM, first compound 10 µM
# [35] = second compound 0.316 µM, first compound 3.16 µM
# [36] = second compound 0.316 µM, first compound 10 µM
# [37] = second compound 1 µM, first compound 3.16 µM
# [38] = second compound 1 µM, first compound 10 µM
# [39] = second compound 3.16 µM, first compound 3.16 µM
# [40] = second compound 3.16 µM, first compound 10 µM
# [41] = second compound 10 µM, first compound 3.16 µM
# [42] = second compound 10 µM, first compound 10 µM
# 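Note: spheroids exposed to compounds for seven days before readout.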
structure (smiles),measurement,setting,value
C=CCn1c(=O)c2cnc(Nc3ccc(N4CCN(C)CC4)cc3)nc2n1-c1cccc(C(C)(C)O)n1 + COC1C(OC(N)=O)C(O)C(Oc2ccc3c(O)c(NC(=O)c4ccc(O)c(CC=C(C)C)c4)c(=O)oc3c2C)OC1(C)C,IC50,[1],> 1000 nM
same,IC50,[2],> 1000 nM
same,IC50,[3],> 1000 nM
same,IC50,[4],> 1000 nM
same,IC50,[5],> 1000 nM
same,IC50,[6],> 1000 nM
same,"viability, T/C","second compound 0.0316 µM, first compound 0.00316 µM",106%
same,"viability, T/C","second compound 0.0316 µM, first compound 0.01 µM",111%
same,"viability, T/C",[7],103%
same,"viability, T/C",[8],102%
same,"viability, T/C",[9],91.4%
same,"viability, T/C",[10],65.5%
same,"viability, T/C","second compound 0.1 µM, first compound 0.00316 µM",112%
same,"viability, T/C","second compound 0.1 µM, first compound 0.01 µM",94.6%
same,"viability, T/C",[11],82.5%
same,"viability, T/C",[12],82.7%
same,"viability, T/C",[13],77.2%
same,"viability, T/C",[14],95.6%
same,"viability, T/C","second compound 0.316 µM, first compound 0.00316 µM",102%
same,"viability, T/C","second compound 0.316 µM, first compound 0.01 µM",93.8%
same,"viability, T/C",[15],95%
same,"viability, T/C",[16],104%
same,"viability, T/C",[17],87.4%
same,"viability, T/C",[18],70.6%
same,"viability, T/C","second compound 1 µM, first compound 0.00316 µM",97.1%
same,"viability, T/C","second compound 1 µM, first compound 0.01 µM",85.9%
same,"viability, T/C",[19],92%
same,"viability, T/C",[20],95.8%
same,"viability, T/C",[21],91.3%
same,"viability, T/C",[22],66.3%
same,"viability, T/C","second compound 3.16 µM, first compound 0.00316 µM",96%
same,"viability, T/C","second compound 3.16 µM, first compound 0.01 µM",90.8%
same,"viability, T/C",[23],96.7%
same,"viability, T/C",[24],98.3%
same,"viability, T/C",[25],88.6%
same,"viability, T/C",[26],65.3%
same,"viability, T/C","second compound 10 µM, first compound 0.00316 µM",104%
same,"viability, T/C","second compound 10 µM, first compound 0.01 µM",88.9%
same,"viability, T/C",[27],102%
same,"viability, T/C",[28],87.2%
same,"viability, T/C",[29],87%
same,"viability, T/C",[30],73.4%
COc1cccc2c1C(=O)c1c(O)c3c(c(O)c1C2=O)CC(O)(C(=O)CO)CC3OC1CC(N)C(O)C(C)O1 (stereo not drawn) + Cc1cccc(N(C)C(=O)C2C(O)CCN2c2nc(C)cc(C(F)(F)F)c2C#N)c1,IC50,[1],1580 nM
same,IC50,[2],1600 nM
same,IC50,[3],1350 nM
same,IC50,[4],1350 nM
same,IC50,[5],1120 nM
same,IC50,[6],838 nM
same,"viability, T/C",[7],69.3%
same,"viability, T/C",[8],74.4%
same,"viability, T/C",[9],65.8%
same,"viability, T/C",[10],59.6%
same,"viability, T/C",[31],36.1%
same,"viability, T/C",[32],1.6%
same,"viability, T/C",[11],79.5%
same,"viability, T/C",[12],81.9%
same,"viability, T/C",[13],61.6%
same,"viability, T/C",[14],60.2%
same,"viability, T/C",[33],40%
same,"viability, T/C",[34],1.95%
same,"viability, T/C",[15],84.5%
same,"viability, T/C",[16],76%
same,"viability, T/C",[17],59.8%
same,"viability, T/C",[18],60.3%
same,"viability, T/C",[35],36.1%
same,"viability, T/C",[36],2.38%
same,"viability, T/C",[19],85.1%
same,"viability, T/C",[20],90.8%
same,"viability, T/C",[21],79.4%
same,"viability, T/C",[22],55.7%
same,"viability, T/C",[37],28.3%
same,"viability, T/C",[38],1.59%
same,"viability, T/C",[23],81.1%
same,"viability, T/C",[24],81.1%
same,"viability, T/C",[25],61.6%
same,"viability, T/C",[26],60.3%
same,"viability, T/C",[39],19.1%
same,"viability, T/C",[40],1.26%
same,"viability, T/C",[27],90.9%
same,"viability, T/C",[28],84.6%
same,"viability, T/C",[29],67.7%
same,"viability, T/C",[30],52.3%
same,"viability, T/C",[41],9.35%
same,"viability, T/C",[42],1.42%
COc1cccc(OCCCN)c1-c1cc(Nc2cnc(C#N)cn2)n[nH]1,"viability, T/C",compound 0.00316 µM,109% and 97% and 97.8%
same,"viability, T/C",compound 0.01 µM,88.7% and 92.5% and 82.9%
same,"viability, T/C",compound 0.0316 µM,70.5% and 72.5% and 94.9%
same,"viability, T/C",compound 0.1 µM,77.6% and 81.7% and 73.8%
same,"viability, T/C",compound 0.316 µM,73.2% and 70% and 74.8%
same,"viability, T/C",compound 1 µM,85% and 73.7% and 71.7%
same,IC50,curve of compound,> 1000 nM
COc1cc2cc(C(=O)CCC(=O)O)sc2cc1OC + COC1C(OC(N)=O)C(O)C(Oc2ccc3c(O)c(NC(=O)c4ccc(O)c(CC=C(C)C)c4)c(=O)oc3c2C)OC1(C)C,IC50,[1],> 10000 nM
same,IC50,[2],> 10000 nM
same,IC50,[3],> 10000 nM
same,IC50,[4],> 10000 nM
same,IC50,[5],> 10000 nM
same,IC50,[6],> 10000 nM
same,"viability, T/C",[7],99.4%
same,"viability, T/C",[8],95.9%
same,"viability, T/C",[9],114%
same,"viability, T/C",[10],101%
same,"viability, T/C",[31],95.4%
same,"viability, T/C",[32],82.4%
same,"viability, T/C",[11],69.1%
same,"viability, T/C",[12],90.1%
same,"viability, T/C",[13],96.8%
same,"viability, T/C",[14],120%
same,"viability, T/C",[33],93.8%
same,"viability, T/C",[34],93.3%
same,"viability, T/C",[15],97.7%
same,"viability, T/C",[16],91.6%
same,"viability, T/C",[17],92.4%
same,"viability, T/C",[18],99.2%
same,"viability, T/C",[35],91.5%
same,"viability, T/C",[36],87.6%
same,"viability, T/C",[19],100%
same,"viability, T/C",[20],96.4%
same,"viability, T/C",[21],97.8%
same,"viability, T/C",[22],111%
same,"viability, T/C",[37],93.2%
same,"viability, T/C",[38],93.4%
same,"viability, T/C",[23],99.5%
same,"viability, T/C",[24],90.2%
same,"viability, T/C",[25],95.6%
same,"viability, T/C",[26],112%
same,"viability, T/C",[39],90.7%
same,"viability, T/C",[40],90.1%
same,"viability, T/C",[27],114%
same,"viability, T/C",[28],90.6%
same,"viability, T/C",[29],96.5%
same,"viability, T/C",[30],98.5%
same,"viability, T/C",[41],120%
same,"viability, T/C",[42],90.2%
